Measurements taken from patent US4288438A, “Nitrogen-containing heterocyclic ring derivatives and analgesic and anti-inflammatory compositions and methods employing them” (priority 1976, dated 1981).

What was measured:
[1] = test system: Hyperthemia caused by Brewer's yeast; assay: Antipyretic effect, Brewer's yeast hyperthermia, rectal temperature (Table 3); format: in vivo, Male Wister rats; conditions: rat, 50mg/kg p.o., in °C (unit assumed); for Rectal temperature (mean ± SE) 1 hour / Rectal temperature (mean ± SE) 2 hours / Rectal temperature (mean ± SE) 4 hours: * p<0.05 vs before for Test Nos. 1, 2 and Aminopyrine; for Rectal temperature (mean ± SE) 6 hours: * p<0.05 vs before for Test No. 2 and Aminopyrine; for Rectal temperature (mean ± SE) before: before administration
Description: Male Wister rats (weighting 130-150 g.), one group being 5 rats, were used. Hyperthemia was caused by subcutaneous injection of 2 ml./rat of 20% Brewer's yeast suspension. 18 hours later, the rats showing a rise in temperature exceeding 1° C. were selected and allocated into groups each consisting of 5 rats. The sample was orally administered and then the body temperature was measured with the passage of time for 6 hours since then. In addition, the body temperature was measured by measuring the temperature in the rectum by means of a thermister thermometer.
(§1) In addition, the test samples used in the aforesaid tests (a), (b), (c) and (d) were prepared by suspending the test compounds, in the cases of using the compounds of Test Nos. 1,2,4,5,6,8,9,10,11, 16-21 and p henylbutazone,in an aqueous 0.5% methyl cellulose solution, dissolving the test compounds, in the cases of using the compounds of Test Nos. 13,14 and 15, in aqueous solution of 0.5% methyl cellulose, and further dissolving the test compounds, in the cases of using the compounds of Test Nos. 3,7 and 12 and aminopyrine, in distilled water.

writhings (acetic acid) = assay: Whittle's method: acetic acid writhing, oral (Table 2); format: in vivo, Male ICR-Mice; conditions: mouse, 0.6% acetic acid i.p.
Description: (§2) Male ICR-Mice (weighting 25-35 g.), one group being 12 mice, fasted overnight were used in this test. The sample was orally administered, and 20 minutes after, 5 ml./Kg. of 0.4% Evance blue was injected by intravenously and further 10 minutes after, 10 ml./Kg. of 0.6% acetic acid was injected by intraperitoneally. The number of writhings after 20 minutes since the administration of acetic acid was recorded and 10 minutes after since then, the mice were killed by dislocation of the neck, the dye leaked in the abdominal cavity was washed out with 5 ml. of 0.9% saline to make the total amount 10 ml., and thereafter furs, blood corpuscles, etc., intermingled were removed by centrifugal separation at 3,000 r.p.m. for 5 minutes. Furthermore, for preventing turbidity caused by protein, 0.1 ml. of an aqueous 0.1 normal sodium hydroxide was added and then the absorbance at 590 nm was measured. The inhibition ratio of the sample administered rat groups to control groups was calculated.
as §1

[2] = test system: Permeability (dye leaked in the abdominal cavity); assay: Whittle's method: permeability, dye leaked in the abdominal cavity, oral (Table 2); format: in vivo, Male ICR-Mice
Description: (b) Whittle's method (British J. Pharmacol.; 22, 246-253 (1964))
as §2, §1

[3] = test system: Carrageenin-induced edema; assay: Carrageenin-induced edema, hind paw, oral (Table 1); format: in vivo, Male Wister rats; conditions: rat, 1 hour before Carrageenin, edema weight after 3 hours; for inhibition in vivo at 50 mg/kg: po; for Inhibition (%) p.o. 50mg/kg / inhibition in vivo at 50 mg/kg: p.o. 50 mg/kg
Description: (a) Carrageenin-induced edema
Male Wister rats (weighting 130-170 g.), one group being 6 rats, fasted overnight were used. According to […] [Proc. Soc. […] After 3 hours, each rat was sacrificed by chloroform and the hind paw was cut and weighed immediately. By using the value obtained by subtracting the weight of the untreated hind paw from the weight of the hind paw having injected therein the Carrageenin as the weight of edema, the inhibitory ratio of the sample administered rat groups to control groups was calculated. The sample was orally administered one hour before the injection of Carrageenin.
as §1

[4] = Acute toxicity, mouse (Table 4); format: in vivo
[5] = Acute toxicity, rat (Table 4); format: in vivo, Male Wister rats; conditions: 500 mg/Kg oral, 7 days, deaths/animals
Description: Male Wister rats (weighting 130-170 g.), one group being 5 rats, fasted overnight were used in this test.
as §1

[6] = mouse, 25 mg/kg p.o., Evance blue i.v., acetic acid i.p., 590 nm
[7] = mouse, 50 mg/kg p.o., Evance blue i.v., acetic acid i.p., 590 nm
[8] = deaths/animals, method given for rats only (500 mg/Kg oral, 7 days)

| SMILES | Inhibition (%) Writhing S 25mg/kg p.o. (writhings (acetic acid)) [%] | Inhibition (%) Writhing S 50mg/kg p.o. (writhings (acetic acid)) [%] | Inhibition (%) Permeability 25mg/kg p.o. [2, 6] [%] | Inhibition (%) Permeability 50mg/kg p.o. [2, 7] [%] | Inhibition (%) p.o. 50mg/kg [3] [%] | Inhibition (%) p.o. 100mg/kg [3] [%] | inhibition in vivo at 50 mg/kg [3] [%] | also measured |
| --- | --- | --- | --- | --- | --- | --- | --- | --- |
| Cc1c(N(C)C)c(=O)n(-c2ccccc2)n1C [Aminopyrine, reference compound] | 29.6 | 58.1 | 28.5 | 41.7 |  |  |  | Rectal temperature (mean ± SE) 1 hour [1]: 37.92 ± 0.09; Rectal temperature (mean ± SE) 2 hours [1]: 37.49 ± 0.10; Rectal temperature (mean ± SE) 4 hours [1]: 37.39 ± 0.07; Rectal temperature (mean ± SE) 6 hours [1]: 37.76 ± 0.18; Rectal temperature (mean ± SE) before [1]: 39.24 ± 0.14 |
| CN1CCCn2c1cc(-c1ccccc1)cc2=O [Test No. 1] | 41.8 | 87.6 | 18.0 | 44.4 | 71.5 |  |  | Rectal temperature (mean ± SE) 1 hour [1]: 37.07 ± 0.15; Rectal temperature (mean ± SE) 2 hours [1]: 36.17 ± 0.32; Rectal temperature (mean ± SE) 4 hours [1]: 36.12 ± 0.17; Rectal temperature (mean ± SE) 6 hours [1]: 38.52 ± 0.47; Rectal temperature (mean ± SE) before [1]: 38.82 ± 0.05 |
| O=c1cc(-c2ccccc2)cc2n1CCN2 [Test No. 2] | 28.9 | 52.6 | 26.9 | 51.1 | 71.6 | 76.1 |  | Rectal temperature (mean ± SE) 1 hour [1]: 37.80 ± 0.10; Rectal temperature (mean ± SE) 2 hours [1]: 36.74 ± 0.24; Rectal temperature (mean ± SE) 4 hours [1]: 36.77 ± 0.39; Rectal temperature (mean ± SE) 6 hours [1]: 37.51 ± 0.57; Rectal temperature (mean ± SE) before [1]: 38.89 ± 0.21; Number of deaths Mouse ([4]; in vivo): 0/5 |
| Cc1cc2n(c(=O)c1)CCN2C [Test No. 3, 1,7-dimethyl-5-oxo-1,2,3,5-tetrahydroimidazo[1,2-a]pyridine] | 52.1 | 75.3 | 18.5 | 46.2 |  | 51.5 | 52.3 | Number of deaths Mouse [4, 8]: 1/5 |
| O=c1cc(-c2ccccc2)cc2n1CC[S+]2[O-] (centres unmarked) [Test No. 4] |  |  |  |  |  |  |  | Number of deaths Rat [5]: 2/5; Number of deaths Mouse [4, 8]: 1/5 |
| CN1CCn2c1cc(-c1ccccc1)cc2=O [Test No. 5] | 41.2 | 67.4 | 20.0 | 42.1 |  |  |  |  |
| O=c1cc(-c2ccccc2)cc2n1CCCN2 [Test No. 6] | 69.0 | 91.5 | 28.4 | 59.0 | 72.7 | 80.5 |  |  |
| CN1CCn2c1ccc(-c1ccccc1)c2=O [Test No. 7, 1-methyl-5-oxo-6-phenyl-1,2,3,5-tetrahydroimidazo[1,2-a]pyridine] | 59.1 | 95.3 | 49.3 | 63.8 |  | 79.5 | 75 |  |
| Cc1cc2n(c(=O)c1)CCCN2C [Test No. 8] | 35.6 | 66.4 |  |  | 53.3 |  |  | Inhibition (%) Permeability 25mg/kg p.o. ([2]; 25 mg/kg): 32.4%; Inhibition (%) Permeability 50mg/kg p.o. ([2]; 50 mg/kg): 25.8% |
| CCN1CCn2c1cc(-c1ccccc1)cc2=O [Test No. 9] |  |  |  |  |  |  |  | Number of deaths Rat [5]: 0/5; Number of deaths Mouse [4, 8]: 0/5 |
| O=c1cc(-c2ccccc2)cc2n1CCS2 [Test No. 10] |  |  |  |  |  |  |  | Number of deaths Rat [5]: 0/5; Number of deaths Mouse [4, 8]: 0/5 |
| CN1CCCn2c1cc(-c1ccc(Cl)cc1)cc2=O [Test No. 11] |  |  |  |  | 47.1 |  |  |  |
| CN1CCn2c1cc1c(c2=O)CCC1 [Test No. 13, 1-methyl-5-oxo-1,2,3,6,7,8-hexahydroimidazo[1,2-b]1H-2-pyrindine] |  |  |  |  | 57.1 |  |  |  |
| CN1CCn2c1cc1c(c2=O)CCCC1 [Test No. 14, 1-methyl-5-oxo-1,2,3,5,6,7,8,9-octahydroimidazo[1,2-b]isoquinoline] |  |  |  |  |  |  | 64.1 |  |
| CN1CCCn2c1cc1c(c2=O)CCCC1 [Test No. 15, 1-methyl-6-oxo-1,2,3,4,6,7,8,9,10-nonahydropyrimido[1,2-b]isoquinoline] |  |  |  |  |  |  | 52.4 |  |
| Cc1cc2n(c(=O)c1-c1ccccc1)CCN2C [Test No. 16, 1,7-dimethyl-5-oxo-6-phenyl-1,2,3,5-tetrahydroimidazo[1,2-a]pyridine] |  |  |  |  |  |  | 47.7 |  |
| Cc1c(-c2ccccc2)cc2n(c1=O)CCCN2C [Test No. 17, 1,7-dimethyl-6-oxo-8-phenyl-1,2,3,4,6-pentahydropyrido[1,2-a]pyrimidine] |  |  |  |  |  |  | 45.7 |  |
| Cc1cc(=O)n2c(c1-c1ccccc1)N(C)CC2 [Test No. 18, 1,7-dimethyl-5-oxo-8-phenyl-1,2,3,5-tetrahydroimidazo[1,2-a]pyridine] |  |  |  |  |  | 41.0 |  |  |
| Cc1cc(=O)n2c(c1-c1ccccc1)NCCC2 [Test No. 19] |  |  |  |  |  | 46.7 |  |  |
| CC1CNc2cc(-c3ccccc3)cc(=O)n21 (centres unmarked) [Test No. 20] |  |  |  |  | 72.2 |  |  |  |
| O=c1cc(-c2ccccc2)cc2sccn12 [Test No. 21] |  |  |  |  | 46.9 |  |  |  |
| CCCCC1C(=O)N(c2ccccc2)N(c2ccccc2)C1=O [phenylbutazone, reference compound] |  |  |  |  |  | 51.2 | 44.5 |  |
